# What was measured:
# insomnia = assay: Migraine open-label pilot study: insomnia on 4-point scale, night before vs. night after dosing (insomnia-free, insomnia intensity); assay type: in vivo, human; settings: for Change in insomnia-free / Change in insomnia-intensity: baseline to night after dosing; for Insomnia-intensity at baseline / Insomnia-intensity at night after dosing: sum of severity of all patients
# Procedure: (§1) Sixteen unique patients were enrolled in an open phase pilot study for the acute treatment of migraine attacks, insomnia, and emotional pain. Of the sixteen patients, eleven were evaluated for one migraine attack, one for two attacks, two for four attacks, one for six attacks, and one for fourteen attacks. A total of forty-one […] treatments were evaluated. Patients received a single dose of one of the following treatment options:
# (§2) The majority of the patients remained in the clinic for observation for 2 hours after dosing. They completed headache diary assessments immediately before and after dosing at time points: 7, 15, and 30 minutes; and 1, 1.5, 2, 3, 6, 12, 24, and 48 hours. Headache pain was assessed on a 4-point scale (0=none; 1=mild; 2=moderate; 3=severe). The assessment of photophobia, phonophobia, nausea, and neck/shoulder pain was assessed as present or absent. The assessment of emotional pain was recorded on a 4-point scale (0=none, 1=mild, 2=moderate, 3=severe). The assessment of difficulty sleeping or falling asleep (insomnia) was assessed on a 4-point scale (0=none, 1=mild, 2=moderate, 3=severe) at baseline, for the night before treatment and for the following nights at 24, and 48 hours. Patients recorded side effects severity at each time point. Patients recorded the time of the first rescue medication dose and all additional headache medications used within 48 hours. Patients were required to stay awake to record their assessments in the first 2 hours, sleeping was permitted thereafter. While asleep, assessments were completed according to patients' best estimation. For data analysis, it was assumed that a migraine attack is a unique patient. Patients were asked to specify (yes or no answer) to whether they experienced emotional pain symptoms such as: hurt feelings, sadness, fear, or anger. Patients who replied positively to having emotional pain were asked to specify the cause into one of the following options: relationship, work/school, money/debt, health, or loss/grief.
# emotional pain = assay: Migraine open-label pilot study: emotional pain on 4-point scale (emotional pain-free, emotional pain intensity); assay type: in vivo, human
# Procedure: as §1, §2
# [1] = NTX/APAP 2.25 mg/325 mg, NTX 2.25 mg
# [2] = NTX/APAP 3.25 mg/325 mg, NTX 3.25 mg
# [3] = night after dosing, NTX/APAP 2.25 mg/325 mg, NTX 2.25 mg
# [4] = night after dosing, NTX/APAP 3.25 mg/325 mg, NTX 3.25 mg
# [5] = night after dosing, NTX/APAP 5 mg/325 mg, NTX 5 mg
# [6] = night after dosing, NTX/APAP […]325 mg, NTX 1.5 mg
# [7] = night after dosing, naltrexone/acetaminophen 2.25 mg/325 mg (N=21), naltrexone 2.25 mg (N=9)
smiles,measurement,setting,value
O=C1CC[C@@]2(O)[C@H]3Cc4ccc(O)c5c4[C@@]2(CCN3CC2CC2)[C@H]1O5 [naltrexone],Insomnia-free,"insomnia; 24 h, combined doses",11 (69) n (%)
same,Insomnia-free,"insomnia; 24 h time point = night following the day of initial dosing, NTX/APAP 2.25 mg/325 mg, NTX 2.25 mg",6 (66) n (%)
same,Insomnia-free,"insomnia; 24 h time point = night following the day of initial dosing, NTX/APAP 3.25 mg/325 mg, NTX 3.25 mg",2 (66) n (%)
same,Insomnia-free,"insomnia; 24 h time point = night following the day of initial dosing, NTX/APAP 5 mg/325 mg, NTX 5 mg",1 (100) n (%)
same,Insomnia-free,"insomnia; 24 h time point = night following the day of initial dosing, NTX/APAP […]325 mg, NTX 1.5 mg",2 (66) n (%)
same,Insomnia-free,"insomnia; 48 h, NTX/APAP 2.25 mg/325 mg, NTX 2.25 mg",8 (88) n (%)
same,Insomnia-free,"insomnia; 48 h, NTX/APAP 5 mg/325 mg, NTX 5 mg",1 (100) n (%)
same,Insomnia-free,"insomnia; 48 h, combined doses",2 (13) n (%)
same,Change in insomnia-free,insomnia; [1],+2 (22) n (%)
same,Change in insomnia-intensity,insomnia; [1],−10 (−111) n (%)
same,Change in insomnia-free,insomnia; [2],+1 n (%)
same,Change in insomnia-intensity,insomnia; [2],−1 (−50) n (%)
same,Change in insomnia-free,"insomnia; NTX/APAP 5 mg/325 mg, NTX 5 mg",0 n (%)
same,Change in insomnia-intensity,"insomnia; NTX/APAP 5 mg/325 mg, NTX 5 mg",+2 (+200) n (%)
same,Change in insomnia-free,"insomnia; NTX/APAP […]325 mg, NTX 1.5 mg",0 n (%)
same,Change in insomnia-intensity,"insomnia; NTX/APAP […]325 mg, NTX 1.5 mg",−2 (−66) n (%)
same,Insomnia-free at baseline,insomnia; [1],4 (44) n (%)
same,Insomnia-free at baseline,insomnia; [2],1 n (%)
same,Insomnia-free at baseline,"insomnia; NTX/APAP 5 mg/325 mg, NTX 5 mg",0 n (%)
same,Insomnia-free at baseline,"insomnia; NTX/APAP […]325 mg, NTX 1.5 mg",2 n (%)
same,Insomnia-free at night after dosing,insomnia; [3],6 (66) n (%)
same,Insomnia-free at night after dosing,insomnia; [4],2 (66) n (%)
same,Insomnia-free at night after dosing,insomnia; [5],0 n (%)
same,Insomnia-free at night after dosing,insomnia; [6],2 n (%)
same,insomnia intensity change from baseline,insomnia; [7],−111%
same,insomnia-free change from baseline,insomnia; [7],22%
same,insomnia intensity improved by,"insomnia; night before vs. night after treatment, naltrexone 2.25 mg (n=9)",111%
same,Insomnia-intensity at baseline,insomnia; [1],14 (155) n (%)
same,Insomnia-intensity at baseline,insomnia; [2],2 n (%)
same,Insomnia-intensity at baseline,"insomnia; NTX/APAP 5 mg/325 mg, NTX 5 mg",1 n (%)
same,Insomnia-intensity at baseline,"insomnia; NTX/APAP […]325 mg, NTX 1.5 mg",3 n (%)
same,Insomnia-intensity at night after dosing,insomnia; [3],4 (44) n (%)
same,Insomnia-intensity at night after dosing,insomnia; [4],1 n (%)
same,Insomnia-intensity at night after dosing,insomnia; [5],3 n (%)
same,Insomnia-intensity at night after dosing,insomnia; [6],1 n (%)
same,emotional pain intensity decreased by,"emotional pain; 24-hour change from baseline, naltrexone 2.25 mg (n=9)",55%
same,Emotional pain-free,"emotional pain; 7 min, NTX/APAP 2.25 mg/325 mg, NTX 2.25 mg",1 (33) n (%)
same,Emotional pain-free,"emotional pain; 7 min, NTX/APAP 3.25 mg/325 mg, NTX 3.25 mg",1 n (%)
same,Emotional pain-free,"emotional pain; 7 min, NTX/APAP 5 mg/325 mg, NTX 5 mg",0 n (%)
same,Emotional pain-free,"emotional pain; 7 min, all doses combined",2 (33) n (%)
same,Emotional pain-free,"emotional pain; 15 min, NTX/APAP 2.25 mg/325 mg, NTX 2.25 mg",7 (77) n (%)
same,Emotional pain-free,"emotional pain; 15 min, NTX/APAP 3.25 mg/325 mg, NTX 3.25 mg",2 n (%)
same,Emotional pain-free,"emotional pain; 15 min, NTX/APAP 5 mg/325 mg, NTX 5 mg",0 n (%)
same,Emotional pain-free,"emotional pain; 15 min, NTX/APAP […]325 mg, NTX 1.5 mg",2 n (%)
same,Emotional pain-free,"emotional pain; 15 min, all doses combined",11 (69) n (%)
same,Emotional pain-free,"emotional pain; 30 min, NTX/APAP 2.25 mg/325 mg, NTX 2.25 mg",8 (89) n (%)
same,Emotional pain-free,"emotional pain; 30 min, NTX/APAP 3.25 mg/325 mg, NTX 3.25 mg",2 (66) n (%)
same,Emotional pain-free,"emotional pain; 30 min, NTX/APAP 5 mg/325 mg, NTX 5 mg",1 (100) n (%)
same,Emotional pain-free,"emotional pain; 30 min, NTX/APAP […]325 mg, NTX 1.5 mg",2 (66) n (%)
same,Emotional pain-free,"emotional pain; 30 min, all doses combined",13 (87) n (%)
same,Emotional pain-free,"emotional pain; 1 h, NTX/APAP 2.25 mg/325 mg, NTX 2.25 mg",9 (100) n (%)
same,Emotional pain-free,"emotional pain; 1 h, NTX/APAP 3.25 mg/325 mg, NTX 3.25 mg",2 (66) n (%)
same,Emotional pain-free,"emotional pain; 1 h, NTX/APAP 5 mg/325 mg, NTX 5 mg",1 n (%)
same,Emotional pain-free,"emotional pain; 1 h, NTX/APAP […]325 mg, NTX 1.5 mg",2 (66) n (%)
same,Emotional pain-free,"emotional pain; 1 h, all doses combined",14 (88) n (%)
same,Emotional pain-free,"emotional pain; 90 min, NTX/APAP 2.25 mg/325 mg, NTX 2.25 mg",9 (100) n (%)
same,Emotional pain-free,"emotional pain; 90 min, NTX/APAP 3.25 mg/325 mg, NTX 3.25 mg",3 (100) n (%)
same,Emotional pain-free,"emotional pain; 90 min, NTX/APAP 5 mg/325 mg, NTX 5 mg",1 (100) n (%)
same,Emotional pain-free,"emotional pain; 90 min, NTX/APAP […]325 mg, NTX 1.5 mg",3 (100) n (%)
